Data taken from patent US20230032216A1, “INTERLEUKIN-4-INDUCED GENE 1 (IL4I1) AND RESPECTIVE METABOLITES AS BIOMARKERS FOR CANCER” (DEUTSCHES KREBSFORSCHUNGSZENTRUM STIFTUNG DES ÖFFENTLICHEN …, priority 2019, published 2023).

Assays:
advanced melanoma [1] = details: epacadostat in combination with the anti-PD-1 mAb pembrolizumab, advanced melanoma (Long et al., 2019); cited from earlier work
[2] = Conversion of I3P to KynA under cell-free conditions; type: physicochemical
U-87MG cells = test: Wound healing (migration) assay with Ctrl and IL4I1-expressing glioblastoma cells; type: cell-based, human; details: ectopically IL4I1-expressing U-87MG cells, 1 μM SR1, FIG. 3C
Method: Cells were seeded in 2-well cell culture inserts (ibidi, 80209) placed in 24-well plates. For U-87MG cells, as well as Ctrl and IL4I1-expressing U-87MG cells, 3×10^4 cells in 100 μL medium per well of cell culture insert were seeded. In the case of Ctrl and IL4I1-expressing U-251MG cells, 4×10^4 in 100 μL medium per well of cell culture insert were seeded. Cells were incubated for 16 h, inserts were removed and 1 mL of complete DMEM medium was added to each well of the plate. Cell migration was monitored by taking pictures at indicated time points, until gap (500 μm+/−100 μm) was covered by cells. In the case where U-87MG cells were treated with I3P or SR1, treatments were applied at the time of seeding the cells in the 2 well cell culture inserts. In addition, after 16 h incubation time and insert removal, 1 mL of complete DMEM medium containing treatments was applied to cells and kept throughout the assay. For each independent experiment, 3 pictures per well were taken and each condition was carried out at least in 3 wells. Pictures were taken with an ECLIPSE Ti-E/B inverted microscope (Nikon) with the 4×objective and using the NIS Elements software version 4.13.04. Pictures were analyzed with TScratch software version 1.0 (Geback et al., 2009). Cell migration was assessed by calculating the percentage of covered area for each time point normalized to the area at the 0 h time point.

advanced melanoma [3] = test: RNA-seq of advanced melanoma patients before and on nivolumab treatment (Riaz et al., GSE91061); type: in vivo, human
Description: RNA-seq datasets-Raw counts and metadata were downloaded from GEO using GEOquery (Davis and Meltzer, 2007). The harmonized HT-Seq counts and Fragments Per Kilobase of transcript per Million mapped reads (FPKM) of TCGA datasets were downloaded using TCGAbiolinks (Colaprico et al., 2016) from Genomic Data Commons (GDC) (https://gdc.cancer.gov/), and only patients with the identifier “primary tumor” were retained, with the exception of melanoma that was split into datasets for primary and metastatic cohorts. The FPKM values were converted to transcripts per million (TPMs) (Li and Dewey, 2011). TPM data of normal tissues were downloaded from the Genotype-Tissue Expression (GTEx) dataset (https://gtexportal.org/home/). All TPM values were log 2 transformed. Raw counts of the Riaz et al. […] (Riaz et al., 2017) advanced melanoma dataset were downloaded from https://github.com/riazn/bms038_analysis, and based on principle component analysis one outlier patient pair was removed (Pt-84). RNA-seq counts were saved as DGELists (Robinson et al., 2010). Genes with less than 10 counts were filtered followed by trimmed mean of M values (TMM) normalization (Robinson and Oshlack, 2010) and variance modeling using voom (Law et al., 2014).

[4] = advanced melanoma patients, before vs after nivolumab, FIG. 8C, re-analysis of Riaz et al. 2017

Compound: NS(=O)(=O)NCCNc1nonc1C(=NO)Nc1ccc(F)c(Br)c1 [epacadostat]
- Clinical benefit in phase III trial (advanced melanoma [1]): failed

Compound: O=C(O)C(=O)Cc1c[nH]c2ccccc12 [I3P, Indole-3-pyruvic acid]
- Formation of KynA from I3P ([2]; data not shown): formed spontaneously
- Formation of KynA from I3P in the presence of H2O2 ([2]; with H2O2, data not shown): enhanced

Compound: CC(C)n1cnc2c(NCCc3ccc(O)cc3)nc(-c3csc4ccccc34)nc21 [SR1]
- IL4I1-mediated motility of AHR-proficient cells (U-87MG cells): reversed

Compound: nivolumab: anti-PD-1 monoclonal antibody (mAb) nivolumab
- AHR activation (AHR signature) (advanced melanoma [3]; advanced melanoma patients after nivolumab, FIG. 8D): resulted in AHR activation
- Hallmark of cancer gene set enrichment (advanced melanoma [3]; advanced melanoma patients before vs on Nivolumab therapy, FIG. 10): strong upregulation of inflammatory hallmark gene signatures
- IDO1 expression (advanced melanoma [3]; [4]): induced
- IL4I1 expression (advanced melanoma [3]; [4]): induced
- IL4I1 expression (advanced melanoma [3]; advanced melanoma patients, before vs after nivolumab, FIG. 8C, re-analysis of Riaz et al. 2017, listed as Nivolumab): higher expression of IL4I1
- IL4I1 expression in ipilimumab-naïve patients (advanced melanoma [3]; ipilimumab-naïve advanced melanoma patients, response to nivolumab, FIG. 8E): significant IL4I1 increase
